According to patent publication US20260241008A1, “COMPOSITION CONTAINING SELF-ASSEMBLED STRUCTURE AND FREEZE-DRIED PRODUCT THEREOF” (Resonac Corporation, priority 2023, published 2026):

Experiment: Krafft point of TPNa aqueous solution
Type: physicochemical

## Cc1c(C)c2c(c(C)c1OP(=O)([O-])[O-])CCC(C)(CCCC(C)CCCC(C)CCCC(C)C)O2.[Na+].[Na+] (racemic) [TPNa, sodium salt of the dl-α-tocopheryl phosphate]
  Krafft point (Kp): 16.2 °C
